{"source": "patent US4550179A", "about": "“N-(1-Allyl-2-pyrrolidinyl-methyl) 2-methoxy-4-amino-5-methylsulfamoyl benzamide” (Societe d'Etudes Scientifiques et Industrielles de l'Ile-de …, priority 1980, dated 1985)", "type_in_all_cases": "in vivo", "key": {"arterial pressure": {"tested_on": "arterial pressure", "assay": "arterial pressure in dog anaesthetised with chloralose", "source_text": "(§1) The effects of the benzamide on the cardiovascular system were studied in a dog anaesthetised with chloralose, with the following results:\nVariations in arterial pressure\n(mg/kg/I.V.) relative to initial pressure"}, "noradrenalin": {"tested_on": "noradrenalin", "assay": "hypertensive response to noradrenalin, anaesthetised dog", "conditions": "for % reduction relative to control hypertension (R): noradrenalin", "source_text": "as §1\nNoradrenalin 0.5 R = 21%"}, "migraine": {"tested_on": "migraine", "assay": "open investigation in migraine out-patients", "conditions": "150 mg per day orally in 3 doses", "description": "(3) An open investigation covering 80 patients, who were followed in out-patient treatment with 150 mg of benzamide per day, given orally in 3 doses: […]"}}}
{"compound": "C=CCN1CCCC1CNC(=O)c1cc(S(=O)(=O)NC)c(N)cc1OC", "note": "(stereo not shown) [Benzamide according to the invention, N-(1-allyl-2-pyrrolidinyl-methyl)2-methoxy-4-amino-5-methylsulfamoyl benzamide]", "values": [{"measurement": "Variations in arterial pressure relative to initial pressure", "setting": "arterial pressure; cumulative dose 0.5 mg/kg I.V.", "result": -21, "unit": "%"}, {"measurement": "Variations in arterial pressure relative to initial pressure", "setting": "arterial pressure; cumulative dose 1 mg/kg I.V.", "result": -32, "unit": "%"}, {"measurement": "Variations in arterial pressure relative to initial pressure", "setting": "arterial pressure; cumulative dose 2 mg/kg I.V.", "result": -36, "unit": "%"}, {"measurement": "Variations in arterial pressure relative to initial pressure", "setting": "arterial pressure; cumulative dose 4 mg/kg I.V.", "result": -48, "unit": "%"}, {"measurement": "Variations in arterial pressure relative to initial pressure", "setting": "arterial pressure; cumulative dose 8 mg/kg I.V.", "result": -54, "unit": "%"}, {"measurement": "Variations in arterial pressure relative to initial pressure", "setting": "arterial pressure; cumulative dose 16 mg/kg I.V.", "result": -59, "unit": "%"}, {"measurement": "Variations in arterial pressure relative to initial pressure", "setting": "arterial pressure; cumulative dose 32 mg/kg I.V.", "result": -58, "unit": "%"}, {"measurement": "arterial pressure", "setting": "arterial pressure; dog anaesthetised with chloralose", "result": "drop in arterial pressure proportional to the dose administered"}, {"measurement": "hypertensive responses caused by noradrenalin", "setting": "noradrenalin; anaesthetised dog", "result": "reduces the hypertensive responses"}, {"measurement": "% reduction relative to control hypertension (R)", "setting": "noradrenalin; cumulative dose 0.5 mg/kg I.V.", "result": 21, "unit": "%"}, {"measurement": "% reduction relative to control hypertension (R)", "setting": "noradrenalin; cumulative dose 1 mg/kg I.V.", "result": 13, "unit": "%"}, {"measurement": "% reduction relative to control hypertension (R)", "setting": "noradrenalin; cumulative dose 2 mg/kg I.V.", "result": 30, "unit": "%"}, {"measurement": "% reduction relative to control hypertension (R)", "setting": "noradrenalin; cumulative dose 4 mg/kg I.V.", "result": 30, "unit": "%"}, {"measurement": "% reduction relative to control hypertension (R)", "setting": "noradrenalin; cumulative dose 8 mg/kg I.V.", "result": 40, "unit": "%"}, {"measurement": "% reduction relative to control hypertension (R)", "setting": "noradrenalin; cumulative dose 16 mg/kg I.V.", "result": 49, "unit": "%"}, {"measurement": "% reduction relative to control hypertension (R)", "setting": "noradrenalin; cumulative dose 32 mg/kg I.V.", "result": 66, "unit": "%"}, {"measurement": "remission in particularly severe cases of \"accompanied\" migraines", "setting": "migraine", "result": "the remission transformed the social life of the patient"}, {"measurement": "General tolerance of the treatment", "setting": "migraine; 80 patients", "result": "very satisfactory"}, {"measurement": "success", "setting": "migraine; 80 patients", "result": 79, "unit": "%"}]}
